Source: patent US6599743B2, “Method for microproduction of tea plants from leaf explants” (Council of Scientific & Industrial Research, priority 2001, dated 2003)

Test system: rhizogenic calli derived from leaf explants
Assay: adventitious shoot bud formation on rhizogenic calli derived from tea leaf explants
Format: cell-based, Camellia sinensis
Conditions: rhizogenic calli transferred to auxin free MS medium with 0.5 to 8 mg/l 6 Benzyl amino purine
Description: iv) For adventitious shoot bud formation, the rhizogenic callus cultures obtained from step (iii) were transferred to (0.8%) agar solidified basal MS medium supplemented with 6 Benzyl amino purine (0.5 to 8.0 mg/l) and 3% sucrose.
After 4-10 weeks, the rhizogenic callus was transferred to (0.8%) agar solidified basal MS medium supplemented with 3% sucrose and 0.5 to 8.0 mg/l 6 Benzyl amino purine for adventitious shoot bud formation.

## c1ccc(CNc2ncnc3nc[nH]c23)cc1 [6 Benzyl amino purine]
  adventitious shoot bud development: more than 30%
  explants responding (leaf explant response): ~100%
